ChEMBL document CHEMBL1124264, “Predictive structure-activity relationships in a series of pyranoquinoline derivatives. A new primate model for the identification of antiallergic activity” (J Med Chem, 1988)

How the values were obtained:
[1] = Biological activity expressed as the Log potency ratio (PR) of the compound relative to a standard compound 63; type: ADME; details: octanol/water
[2] = tested on: Monkey; assay: In vitro inhibition of anti-IgE induced histamine release from bronchoalveolar mast cells of monkey infected with Ascaris suum; type: functional, Cercopithecidae, Lung
[3] = log PR value using spectrophotometric method; type: ADME; details: octanol/water
[4] = Dissociation constant using spectrophotometric method; type: physicochemical
[5] = log PR value (eq 2); type: ADME; details: octanol/water
[6] = Dissociation constant (eq 2); type: physicochemical; details: read-out: pK3
[7] = Dissociation constant (pKa1) using partition method; type: physicochemical; details: read-out: pKa1
[8] = Dissociation constant (pKa2) using partition method; type: physicochemical; details: read-out: pKa2

SMILES | Log PR [1] | Potency ratio [2] | other results
CCCc1c2nc(C(=O)[O-])cc(C#N)c2cc2c(=O)cc(C(=O)[O-])oc12.[Na+].[Na+] | 0.07 | 1.161 | –
CCCc1c2nc(C(=O)[O-])cc(NCC)c2cc2c(=O)cc(C(=O)[O-])oc12.[Na+].[Na+] | -2.15 | 0.007 | Log PR [3]: -0.89; pKa [4]: 8.64
CCCc1c2nc(C(=O)[O-])cc(Oc3ccccc3)c2cc2c(=O)cc(C(=O)[O-])oc12.[Na+].[Na+] | 0.51 | 3.244 | –
CCCc1c2nc(C(=O)[O-])cc(C3OCCCO3)c2cc2c(=O)cc(C(=O)[O-])oc12.[Na+].[Na+] | -0.75 | 0.179 | –
CCCc1c2nc(C(=O)[O-])cc(S(=O)Oc3ccccc3)c2cc2c(=O)cc(C(=O)[O-])oc12.[Na+].[Na+] (stereo not drawn) | -0.27 | 0.536 | –
CCCc1c2nc(C(=O)[O-])cc(/C=C/c3ccccc3)c2cc2c(=O)cc(C(=O)[O-])oc12.[Na+].[Na+] | 0.8 | 6.326 | –
CCCc1c2nc(C(=O)[O-])cc(C=O)c2cc2c(=O)cc(C(=O)[O-])oc12.[Na+].[Na+] | -0.63 | 0.237 | –
CCCc1c2nc(C(=O)[O-])cc(Nc3ccccc3)c2cc2c(=O)cc(C(=O)[O-])oc12.[Na+].[Na+] | -0.15 | 0.706 | Log PR [3]: 0.39; pKa [4]: 7.78
CCCc1c2nc(C(=O)[O-])cc(N)c2cc2c(=O)cc(C(=O)[O-])oc12.[Na+].[Na+] | 0.12 | 0.057 | Log PR [5]: -1.25; pKa [6]: 8.75
CCCc1c2nc(C(=O)[O-])cc(NC(C)=O)c2cc2c(=O)cc(C(=O)[O-])oc12.[Na+].[Na+] | -1.19 | 0.065 | –
CCCc1c2nc(C(=O)[O-])cc(C(F)(F)C(F)(F)F)c2cc2c(=O)cc(C(=O)[O-])oc12.[Na+].[Na+] | 0.45 | 2.83 | –
CCCc1c2nc(C(=O)[O-])cc(C(=O)[O-])c2cc2c(=O)cc(C(=O)[O-])oc12.[Na+].[Na+].[Na+] | -1.27 | 0.053 | –
CCCc1c2nc(C(=O)[O-])cc(NC)c2cc2c(=O)cc(C(=O)[O-])oc12.[Na+].[Na+] | -0.66 | 0.012 | Log PR [5]: -1.91; pKa [7]: 0.5; pKa [6]: 8.63; pKa [8]: 1.62
CCCc1c2nc(C(=O)[O-])cc(N3CCCC3)c2cc2c(=O)cc(C(=O)[O-])oc12.[Na+].[Na+] | 0.14 | 0.017 | Log PR [5]: -1.25; pKa [6]: 8.75
CCCc1c2nc(C(=O)[O-])cc(N(C)C(C)=O)c2cc2c(=O)cc(C(=O)[O-])oc12.[Na+].[Na+] | -2.05 | 0.009 | –
CCCc1c2nc(C(=O)[O-])cc(-n3cccc3)c2cc2c(=O)cc(C(=O)[O-])oc12.[Na+].[Na+] | 0.43 | 2.686 | –
CCCc1c2nc(C(=O)[O-])cc(OCC)c2cc2c(=O)cc(C(=O)[O-])oc12.[Na+].[Na+] | -0.4 | 0.4 | –
CCCCCNc1cc(C(=O)[O-])nc2c(CCC)c3oc(C(=O)[O-])cc(=O)c3cc12.[Na+].[Na+] | -1.27 | 0.053 | Log PR [3]: 0.05; pKa [4]: 8.7
CCCc1c2nc(C(=O)[O-])cc(C(F)(F)F)c2cc2c(=O)cc(C(=O)[O-])oc12.[Na+].[Na+] | 0.4 | 2.53 | –
CCCc1c2nc(C(=O)[O-])ccc2cc2c(=O)cc(C(=O)[O-])oc12.[Na+].[Na+] | -1 | 0.1 | –

More lines, main results first:

Log PR [1] | SMILES | Potency ratio [2] | other results
-0.13 | CCCc1c2nc(C(=O)[O-])cc(/C=N/NC(=O)c3ccccc3)c2cc2c(=O)cc(C(=O)[O-])oc12.[Na+].[Na+] | 0.748 | –
-0.05 | CCCc1c2nc(C(=O)[O-])cc(NC(=O)Nc3ccccc3)c2cc2c(=O)cc(C(=O)[O-])oc12.[Na+].[Na+] | 0.895 | –
0.35 | CCCc1c2nc(C(=O)[O-])cc(SCC)c2cc2c(=O)cc(C(=O)[O-])oc12.[Na+].[Na+] | 2.249 | –
0.04 | CCCc1c2nc(C(=O)[O-])cc(Cl)c2cc2c(=O)cc(C(=O)[O-])oc12.[Na+].[Na+] | 1.096 | –
-0.23 | CCCc1c2nc(C(=O)[O-])cc(C(F)F)c2cc2c(=O)cc(C(=O)[O-])oc12.[Na+].[Na+] | 0.586 | –
0.88 | CCCc1c2nc(C(=O)[O-])cc(Sc3ccccc3)c2cc2c(=O)cc(C(=O)[O-])oc12.[Na+].[Na+] | 7.54 | –
-0.29 | CCCc1c2nc(C(=O)[O-])cc(N(C)C)c2cc2c(=O)cc(C(=O)[O-])oc12.[Na+].[Na+] | 0.063 | Log PR [5]: -1.2; pKa [6]: 8.26
-0.42 | CCCc1c2nc(C(=O)[O-])cc(C)c2cc2c(=O)cc(C(=O)[O-])oc12.[Na+].[Na+] | 0.379 | –
0.37 | CCCc1c2nc(C(=O)[O-])cc(O)c2cc2c(=O)cc(C(=O)[O-])oc12.[Na+].[Na+] | 2.366 | –
0.57 | CCCc1c2nc(C(=O)[O-])cc(C(F)(F)C(F)(F)C(F)(F)F)c2cc2c(=O)cc(C(=O)[O-])oc12.[Na+].[Na+] | 3.725 | –
0.02 | CCCc1c2nc(C(=O)[O-])cc(Br)c2cc2c(=O)cc(C(=O)[O-])oc12.[Na+].[Na+] | 1.04 | –
